Measured values published in patent US8426420B2, “Heterocyclic pyrazole-carboxamidesas P2Y12 antagonists” (Sanofi, priority 2007, dated 2013).

What was measured:
[1] = tested on: human platelet rich plasma; test: Inhibition of human platelet aggregation, "Born"-method using single cuvettes; type: cell-based; details: 0.1 h, ADP-induced aggregation, 6 minutes
Experimental: Inhibition of Human Platelet Aggregation
Alternatively to a binding assay which measures a compound's ability to bind to the P2Y12 receptor, the effect on cellular function was also determined. This ability of the compound was evaluated in two platelet aggregation assays: in 96-well plates and with the “Born”-method using single cuvettes.
Whole blood was collected from healthy volunteers using 20 ml syringes containing 2 ml of buffered Citrate. The anticoagulated whole blood was transferred into 15 ml polypropylene conical tubes (10 ml per tube). The tubes were centrifuged for 15 minutes at 340×g at RT without using the centrifuge brake. This procedure leads to a pellet of cellular components and a supernatant of platelet rich plasma (PRP). The PRP layer was collected from each tube and pooled for each donor. To avoid carry over of cellular components following centrifugation, approximately 5 ml of PRP was left in the tube. The platelet concentration was determined using a Coulter Counter.
The 15 ml tubes containing the pellet of cellular components were centrifuged again for 10 minutes at 1940×g. This pelleted out most particulate blood constituents remaining, leaving a layer of Platelet Poor Plasma (PPP). The PPP was collected for each donor. The PRP layer, previously set aside, was diluted with PPP to a final concentration of approximately 3×E8 platelets/ml with the PPP.
The human platelet aggregation assay is performed in single use cuvettes using the platelet aggregation profiler (PAP-4 or -8, Bio/Data corporation).
In the assay cuvette 4 μl of test compound at 100× final concentration in DMSO is mixed with 392 μl fresh PRP and incubated for 2 minutes at 37° C. with 1.200 rpm stirring. Following that incubation period, 4 μl of 250 μM ADP is added to the reaction mix. This addition of ADP is sufficient to induce aggregation in the absence of an inhibitor. After that aggregation is measured over 6 minutes at 37° C. with 1.200 rpm stirring. Results of the assay are expressed as % inhibition, and are calculated using maximum aggregation (Tmax) or area under curve (AUC) of the absorbance over 6 minutes.
The IC50 data of the above described platelet aggregation assay using human platelet rich plasma for exemplary compounds of the present invention are shown in table 3.

[2] = tested on: human platelet rich plasma; test: Inhibition of human platelet aggregation, 96-well assay; type: cell-based; details: Homo sapiens, Platelet, 20 min
How it was run: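 ADP-induced aggregation read as 650 nm absorbance every minute for 20 min at 37 °C, with shaking between reads. PRP (~3×E8 platelets/ml, diluted with PPP, ACD-A blood from healthy volunteers) was exposed to compound for 5 min before adding a 40 μM ADP stock (15 μl into 150 μl).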

human P2Y12 receptor = human P2Y12 receptor (Homo sapiens, UniProt Q9H244); test: Human P2Y12 recombinant cell membrane binding assay with 33P 2MeS-ADP; details: competition against 33P 2MeS-ADP, membranes of CHO cells with recombinant human P2Y12 receptor
human P2Y12 receptor, sequence (Q9H244 whole entry): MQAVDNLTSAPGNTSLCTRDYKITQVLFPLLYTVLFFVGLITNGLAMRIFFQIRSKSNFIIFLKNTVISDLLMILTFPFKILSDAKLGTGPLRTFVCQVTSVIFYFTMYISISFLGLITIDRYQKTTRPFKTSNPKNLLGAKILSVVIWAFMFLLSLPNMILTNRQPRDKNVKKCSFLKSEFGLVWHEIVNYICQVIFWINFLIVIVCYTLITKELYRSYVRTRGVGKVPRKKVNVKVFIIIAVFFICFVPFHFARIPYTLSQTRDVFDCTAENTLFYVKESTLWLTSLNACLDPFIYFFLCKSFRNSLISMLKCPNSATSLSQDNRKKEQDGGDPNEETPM
How it was run: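 CHO membranes expressing human P2Y12 (20 μg/ml stock) preincubated 15 min at RT with compound in HEPES pH 7.4 buffer, then 33P 2MeS-ADP (1.61 nM working solution) added for 20 min at RT. Bound label filtered and counted; four-point, five-fold series from 10 μM final, triplicate, four-parameter fit.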

Row | SMILES | IC50 [1] | IC50 [2] | IC50 (human P2Y12 receptor)
1 | CCCCNC(=O)[C@@H]1CCCN1C(=O)COc1cc(C(=O)N[C@@H](CCC(=O)O)C(=O)N2CCN(C(=O)OCC)CC2)nn1-c1ccccc1 [Example 11, 4-{(S)-4-Carboxy-2-[(5-{2-[(S)-2-butylcarbamoyl-pyrrolidin-1-yl]-2-oxo-ethoxy}-1-phenyl-1H-pyrazole-3-carbonyl)-amino]-butyryl}-piperazine-1-carboxylic acid ethyl ester] | 120 nM | 30 nM | –
2 | CCOC(=O)N1CCN(C(=O)[C@H](CCC(=O)O)NC(=O)c2cc(OCC(=O)N3CCC[C@H]3C(=O)NC3CCCC3)n(-c3ccccc3)n2)CC1 [Example 13, 4-{(S)-4-Carboxy-2-[(5-{2-[(S)-2-cyclopentylcarbamoyl-pyrrolidin-1-yl]-2-oxo-ethoxy}-1-phenyl-1H-pyrazole-3-carbonyl)-amino]-butyryl}-piperazine-1-carboxylic acid ethyl ester] | 38 nM | 10 nM | –
3 | CCOC(=O)N1CCN(C(=O)[C@H](CCC(=O)O)NC(=O)c2cc(OCC(=O)N3CCC[C@H]3C(=O)NCC3CC3)n(-c3ccccc3)n2)CC1 [Example 16, 4-{(S)-4-Carboxy-2-[(5-{2-[(S)-2-(cyclopropylmethyl-carbamoyl)-pyrrolidin-1-yl]-2-oxo-ethoxy}-1-phenyl-1H-pyrazole-3-carbonyl)-amino]-butyryl}-piperazine-1-carboxylic acid ethyl ester] | 46 nM | – | –
4 | CCOC(=O)N1CCN(C(=O)[C@H](CCC(=O)O)NC(=O)c2cc(O[C@@H](C)C(=O)N3CCC[C@H]3C(=O)NC3CCC3)n(-c3ccccc3)n2)CC1 [Example 67, 4-[(S)-4-Carboxy-2-({5-[(S)-2-((S)-2-cyclobutylcarbamoyl-pyrrolidin-1-yl)-1-methyl-2-oxo-ethoxy]-1-phenyl-1H-pyrazole-3-carbonyl}-amino)-butyryl]-piperazine-1-carboxylic acid ethyl ester] | 950 nM | 110 nM | –
5 | CCOC(=O)N1CCN(C(=O)[C@H](CC(O)CO)NC(=O)c2cc(OCC(=O)N3CCC[C@H]3C(=O)NC3CCC3)n(-c3ccccc3)n2)CC1 (stereo partly drawn) [Example 117, 4-[(S)-2-({5-[2-((S)-2-Cyclobutylcarbamoyl-pyrrolidin-1-yl)-2-oxo-ethoxy]-1-phenyl-1H-pyrazole-3-carbonyl}-amino)-4,5-dihydroxy-pentanoyl]-piperazine-1-carboxylic acid ethyl ester] | 220 nM | – | –
6 | CCCCOC(=O)N1CCN(C(=O)[C@H](CCc2nn[nH]n2)NC(=O)c2cc(OCC(=O)N3CCC[C@H]3C(=O)NC3CCC3)n(-c3ccccc3)n2)CC1 [Example 126, 4-[(S)-2-({5-[2-((S)-2-Cyclobutylcarbamoyl-pyrrolidin-1-yl)-2-oxo-ethoxy]-1-phenyl-1H-pyrazole-3-carbonyl}-amino)-4-(2H-tetrazol-5-yl)-butyryl]-piperazine-1-carboxylic acid butyl ester] | 79 nM | 50 nM | –
7 | CCOC(=O)N1CCN(C(=O)[C@H](C)NC(=O)c2cc(OCC(=O)N3CCC[C@H]3C(=O)NC3CCC3)n(-c3ccccc3)n2)CC1 [Example 185, 4-[(S)-2-({5-[2-((S)-2-Cyclobutylcarbamoyl-pyrrolidin-1-yl)-2-oxo-ethoxy]-1-phenyl-1H-pyrazole-3-carbonyl}-amino)-propionyl]-piperazine-1-carboxylic acid ethyl ester] | 90 nM | – | –
8 | CCCCOC(=O)N1CCN(C(=O)[C@@H](NC(=O)c2cc(OCC(=O)N3CCC[C@H]3C(=O)NC3CCC3)n(-c3ccccc3)n2)C(C)C)CC1 [Example 222, 4-[(S)-2-({5-[2-((S)-2-Cyclobutylcarbamoyl-pyrrolidin-1-yl)-2-oxo-ethoxy]-1-phenyl-1H-pyrazole-3-carbonyl}-amino)-3-methyl-butyryl]-piperazine-1-carboxylic acid butyl ester] | – | 260 nM | 28 nM
9 | CCOC(=O)N1CCN(C(=O)[C@H](CF)NC(=O)c2cc(OCC(=O)N3CCC[C@H]3C(=O)NC3CCC3)n(-c3ccccc3)n2)CC1 [Example 261, 4-[(R)-2-({5-[2-((S)-2-Cyclobutylcarbamoyl-pyrrolidin-1-yl)-2-oxo-ethoxy]-1-phenyl-1H-pyrazole-3-carbonyl}-amino)-3-fluoro-propionyl]-piperazine-1-carboxylic acid ethyl ester] | – | 60 nM | 18 nM
10 | O=C(NCC(=O)N1CCN(C(=O)OC2CCCC2)CC1)c1cc(OCC(=O)N2CCC[C@H]2C(=O)NC2CCC2)n(-c2ccccc2)n1 [Example 268, 4-[2-({5-[2-((S)-2-Cyclobutylcarbamoyl-pyrrolidin-1-yl)-2-oxo-ethoxy]-1-phenyl-1H-pyrazole-3-carbonyl}-amino)-acetyl]-piperazine-1-carboxylic acid cyclopentyl ester] | – | 20 nM | 99 nM
11 | CCCCOC(=O)N1CCN(C(=O)CNC(=O)c2cc(OCC(=O)N3C[C@H](O)C[C@H]3C(=O)NC3CCC3)n(-c3ccccc3)n2)CC1 [Example 270, 4-[2-({5-[2-((2S,4R)-2-Cyclobutylcarbamoyl-4-hydroxy-pyrrolidin-1-yl)-2-oxo-ethoxy]-1-phenyl-1H-pyrazole-3-carbonyl}-amino)-acetyl]-piperazine-1-carboxylic acid butyl ester] | – | 17 nM | 40 nM
12 | CCCOC(=O)N1CCN(C(=O)[C@H](CC(F)(F)F)NC(=O)c2cc(OCC(=O)N3CCC[C@H]3C(=O)NC3CCC3)n(-c3ccccc3)n2)CC1 [Example 273, 4-[(S)-2-({5-[2-((S)-2-Cyclobutylcarbamoyl-pyrrolidin-1-yl)-2-oxo-ethoxy]-1-phenyl-1H-pyrazole-3-carbonyl}-amino)-4,4,4-trifluoro-butyryl]-piperazine-1-carboxylic acid propyl ester] | – | 380 nM | 160 nM

The remaining lines, values ahead:

Row | IC50 [1] | IC50 [2] | IC50 (human P2Y12 receptor) | SMILES
13 | 13 nM | 20 nM | – | CCCCOC(=O)N1CCN(C(=O)[C@H](CCC(=O)O)NC(=O)c2cc(OCC(=O)N3CCC[C@H]3C(=O)NC3CCC3)n(-c3ccccc3)n2)CC1 [Example 119, 4-[(S)-4-Carboxy-2-({5-[2-((S)-2-cyclobutylcarbamoyl-pyrrolidin-1-yl)-2-oxo-ethoxy]-1-phenyl-1H-pyrazole-3-carbonyl}-amino)-butyryl]-piperazine-1-carboxylic acid butyl ester]
14 | 940 nM | 860 nM | – | CCOC(=O)N1CCN(C(=O)[C@H](CCC(=O)O)NC(=O)c2cc(OCC(=O)N3CCC[C@H]3c3cc(C)no3)n(-c3ccccc3)n2)CC1 [Example 173, 4-{(S)-4-Carboxy-2-[(5-{2-[(S)-2-(3-methyl-isoxazol-5-yl)-pyrrolidin-1-yl]-2-oxo-ethoxy}-1-phenyl-1H-pyrazole-3-carbonyl)-amino]-butyryl}-piperazine-1-carboxylic acid ethyl ester]
15 | – | 330 nM | 22 nM | CCCCOC(=O)N1CCN(C(=O)[C@H](CCCCO)NC(=O)c2cc(OCC(=O)N3CCC[C@H]3C(=O)NC3CCC3)n(-c3ccccc3)n2)CC1 [Example 213, 4-[(S)-2-({5-[2-((S)-2-Cyclobutylcarbamoyl-pyrrolidin-1-yl)-2-oxo-ethoxy]-1-phenyl-1H-pyrazole-3-carbonyl}-amino)-6-hydroxy-hexanoyl]-piperazine-1-carboxylic acid butyl ester]
16 | – | 260 nM | 34 nM | CCCCOC(=O)N1CCN(C(=O)[C@H](CCC)NC(=O)c2cc(OCC(=O)N3CCC[C@H]3C(=O)NC3CCC3)n(-c3ccccc3)n2)CC1 [Example 221, 4-[(S)-2-({5-[2-((S)-2-Cyclobutylcarbamoyl-pyrrolidin-1-yl)-2-oxo-ethoxy]-1-phenyl-1H-pyrazole-3-carbonyl}-amino)-pentanoyl]-piperazine-1-carboxylic acid butyl ester]
17 | – | 410 nM | 16 nM | CCCCOC(=O)N1CCN(C(=O)[C@H](COC)NC(=O)c2cc(OCC(=O)N3CCC[C@H]3C(=O)NC3CCC3)n(-c3ccccc3)n2)CC1 [Example 232, 4-[(S)-2-({5-[2-((S)-2-Cyclobutylcarbamoyl-pyrrolidin-1-yl)-2-oxo-ethoxy]-1-phenyl-1H-pyrazole-3-carbonyl}-amino)-3-methoxy-propionyl]-piperazine-1-carboxylic acid butyl ester]
